# Assay results reported in US20260027116A1, “Methods of Treating Chronic Graft-Versus-Host Disease Following Allogeneic Hematopoietic Stem Cell Transplantation” (Kadmon Corporation, LLC, priority 2022, published 2026).
# What was measured:
# [1] = tested on: lung function; experiment: Example 1: percent predicted FEV1 change from baseline; type: in vivo, human
# Procedure: Change From Baseline in Percent Predicted Forced Expiratory Volume in 1 Second (FEV1) at Each Specified Time Points. FEV1 was the volume of air exhaled from the lungs in the first second of a forced expiration as measured by spirometer. Baseline value was defined as valid and last non-missing value obtained within 28 days prior to participant receiving first study medication. EOT visit was performed within 3 days after the participant's last dose of study drug. […] Analysis was performed on mITT population. Here, ‘number analyzed’=participants with available data for each specified category. Here, ‘O’ in the number analyzed field signifies that none of the participants were available for the analysis at the specified time points.
# [2] = clinical drug interaction studies, effects of other drugs on belumosudil; type: in vivo, human; settings: healthy subjects
# [3] = target: P-gp (Homo sapiens, UniProt P08183); experiment: transporter inhibition in vitro; type: in vitro ADME; settings: at clinically relevant concentrations
# P-gp, sequence (P08183 whole entry): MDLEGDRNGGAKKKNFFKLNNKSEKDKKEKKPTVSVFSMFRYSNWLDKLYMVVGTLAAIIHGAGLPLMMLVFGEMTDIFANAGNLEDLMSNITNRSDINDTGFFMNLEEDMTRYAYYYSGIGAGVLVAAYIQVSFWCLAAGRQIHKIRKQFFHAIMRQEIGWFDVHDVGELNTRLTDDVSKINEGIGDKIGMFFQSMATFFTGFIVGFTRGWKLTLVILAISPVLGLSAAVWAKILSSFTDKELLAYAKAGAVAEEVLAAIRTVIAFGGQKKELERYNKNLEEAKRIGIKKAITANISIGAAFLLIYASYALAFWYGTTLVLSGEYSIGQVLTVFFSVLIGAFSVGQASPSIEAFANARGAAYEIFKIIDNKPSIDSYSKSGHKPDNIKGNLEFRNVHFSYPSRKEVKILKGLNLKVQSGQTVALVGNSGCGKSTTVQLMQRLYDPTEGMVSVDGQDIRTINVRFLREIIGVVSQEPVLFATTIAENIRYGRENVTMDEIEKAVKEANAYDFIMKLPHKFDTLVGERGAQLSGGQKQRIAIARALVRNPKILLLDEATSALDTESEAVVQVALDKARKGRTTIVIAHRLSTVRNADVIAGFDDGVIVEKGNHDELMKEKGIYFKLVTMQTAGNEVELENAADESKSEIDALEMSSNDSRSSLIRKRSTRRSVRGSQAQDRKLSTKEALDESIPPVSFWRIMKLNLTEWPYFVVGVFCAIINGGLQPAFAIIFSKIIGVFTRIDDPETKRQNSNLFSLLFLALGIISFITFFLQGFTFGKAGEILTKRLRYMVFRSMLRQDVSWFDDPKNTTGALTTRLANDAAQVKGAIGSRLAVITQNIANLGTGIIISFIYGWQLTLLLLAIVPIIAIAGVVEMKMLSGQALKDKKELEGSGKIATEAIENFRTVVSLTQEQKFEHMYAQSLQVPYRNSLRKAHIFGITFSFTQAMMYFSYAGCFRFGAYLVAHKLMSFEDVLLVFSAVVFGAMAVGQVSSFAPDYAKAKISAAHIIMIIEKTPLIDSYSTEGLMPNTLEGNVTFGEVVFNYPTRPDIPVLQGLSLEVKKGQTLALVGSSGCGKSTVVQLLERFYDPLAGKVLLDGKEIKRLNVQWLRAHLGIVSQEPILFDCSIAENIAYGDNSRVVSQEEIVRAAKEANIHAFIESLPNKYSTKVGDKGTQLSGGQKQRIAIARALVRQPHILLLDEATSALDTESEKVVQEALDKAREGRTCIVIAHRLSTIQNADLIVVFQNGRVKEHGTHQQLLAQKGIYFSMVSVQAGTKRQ
# [4] = pharmacokinetics in specific populations (population pharmacokinetics); parameters: species or system human; settings: in vivo
compound,measurement,setting,value
"CC(C)NC(=O)COc1cccc(-c2nc(Nc3ccc4[nH]ncc4c3)c3ccccc3n2)c1 [Belumosudil, 2-{3-[4-(1H-indazol-5-ylamino)-2-quinazolinyl]phenoxy}-N-(propan-2-yl) acetamide]","Change From Baseline in Percent Predicted Forced Expiratory Volume in 1 Second (FEV1), Mean (Standard Deviation)","[1]; Cohort 2: 200 mg BID, Cycle 14, Day 1",0.0 (—) percent predicted FEV1
same,"Change From Baseline in Percent Predicted Forced Expiratory Volume in 1 Second (FEV1), Mean (Standard Deviation)","[1]; Cohort 2: 200 mg BID, Cycle 15, Day 1",−2.3 (5.1) percent predicted FEV1
same,"Change From Baseline in Percent Predicted Forced Expiratory Volume in 1 Second (FEV1), Mean (Standard Deviation)","[1]; Cohort 2: 200 mg BID, Cycle 16, Day 1",−8.0 (15.6) percent predicted FEV1
same,"Change From Baseline in Percent Predicted Forced Expiratory Volume in 1 Second (FEV1), Mean (Standard Deviation)","[1]; Cohort 2: 200 mg BID, Cycle 17, Day 1",−6.0 (7.2) percent predicted FEV1
same,"Change From Baseline in Percent Predicted Forced Expiratory Volume in 1 Second (FEV1), Mean (Standard Deviation)","[1]; Cohort 2: 200 mg BID, Cycle 18, Day 1",−7.5 (10.6) percent predicted FEV1
same,"Change From Baseline in Percent Predicted Forced Expiratory Volume in 1 Second (FEV1), Mean (Standard Deviation)","[1]; Cohort 2: 200 mg BID, Cycle 19, Day 1",−6.3 (5.5) percent predicted FEV1
same,"Change From Baseline in Percent Predicted Forced Expiratory Volume in 1 Second (FEV1), Mean (Standard Deviation)","[1]; Cohort 2: 200 mg BID, Cycle 25, Day 1",−12.5 (3.5) percent predicted FEV1
same,"Change From Baseline in Percent Predicted Forced Expiratory Volume in 1 Second (FEV1), Mean (Standard Deviation)","[1]; Cohort 2: 200 mg BID, Cycle 27, Day 1",−17.0 (9.9) percent predicted FEV1
same,"Change From Baseline in Percent Predicted Forced Expiratory Volume in 1 Second (FEV1), Mean (Standard Deviation)","[1]; Cohort 2: 200 mg BID, Cycle 29, Day 1",17.0 (11.3) percent predicted FEV1
same,"Change From Baseline in Percent Predicted Forced Expiratory Volume in 1 Second (FEV1), Mean (Standard Deviation)","[1]; Cohort 2: 200 mg BID, Cycle 31, Day 1",−19.5 (10.6) percent predicted FEV1
same,"Change From Baseline in Percent Predicted Forced Expiratory Volume in 1 Second (FEV1), Mean (Standard Deviation)","[1]; Cohort 2: 200 mg BID, Cycle 33, Day 1",−1.0 (33.9) percent predicted FEV1
same,"Change From Baseline in Percent Predicted Forced Expiratory Volume in 1 Second (FEV1), Mean (Standard Deviation)","[1]; Cohort 2: 200 mg BID, Cycle 35, Day 1",−2.5 (30.4) percent predicted FEV1
same,"Change From Baseline in Percent Predicted Forced Expiratory Volume in 1 Second (FEV1), Mean (Standard Deviation)","[1]; Cohort 2: 200 mg BID, Cycle 37, Day 1",−22.0 (—) percent predicted FEV1
same,"Change From Baseline in Percent Predicted Forced Expiratory Volume in 1 Second (FEV1), Mean (Standard Deviation)","[1]; Cohort 2: 200 mg BID, Cycle 39, Day 1",−23.0 (11.3) percent predicted FEV1
same,"Change From Baseline in Percent Predicted Forced Expiratory Volume in 1 Second (FEV1), Mean (Standard Deviation)","[1]; Cohort 2: 200 mg BID, Cycle 43, Day 1",−21.0 (—) percent predicted FEV1
same,"Change From Baseline in Percent Predicted Forced Expiratory Volume in 1 Second (FEV1), Mean (Standard Deviation)","[1]; Cohort 2: 200 mg BID, EOT",−10.1 (15.7) percent predicted FEV1
same,"Change From Baseline in Percent Predicted Forced Expiratory Volume in 1 Second (FEV1), Mean (Standard Deviation)","[1]; Cohort 3: 400 mg QD, Cycle 2, Day 1",−4.8 (6.7) percent predicted FEV1
same,"Change From Baseline in Percent Predicted Forced Expiratory Volume in 1 Second (FEV1), Mean (Standard Deviation)","[1]; Cohort 3: 400 mg QD, Cycle 3, Day 1",−1.5 (6.2) percent predicted FEV1
same,"Change From Baseline in Percent Predicted Forced Expiratory Volume in 1 Second (FEV1), Mean (Standard Deviation)","[1]; Cohort 3: 400 mg QD, Cycle 4, Day 1",−0.2 (8.4) percent predicted FEV1
same,"Change From Baseline in Percent Predicted Forced Expiratory Volume in 1 Second (FEV1), Mean (Standard Deviation)","[1]; Cohort 3: 400 mg QD, Cycle 5, Day 1",0.5 (5.9) percent predicted FEV1
same,"Change From Baseline in Percent Predicted Forced Expiratory Volume in 1 Second (FEV1), Mean (Standard Deviation)","[1]; Cohort 3: 400 mg QD, Cycle 6, Day 1",−0.9 (6.4) percent predicted FEV1
same,"Change From Baseline in Percent Predicted Forced Expiratory Volume in 1 Second (FEV1), Mean (Standard Deviation)","[1]; Cohort 3: 400 mg QD, Cycle 7, Day 1",−0.9 (11.8) percent predicted FEV1
same,"Change From Baseline in Percent Predicted Forced Expiratory Volume in 1 Second (FEV1), Mean (Standard Deviation)","[1]; Cohort 3: 400 mg QD, Cycle 8, Day 1",−1.1 (8.0) percent predicted FEV1
same,"Change From Baseline in Percent Predicted Forced Expiratory Volume in 1 Second (FEV1), Mean (Standard Deviation)","[1]; Cohort 3: 400 mg QD, Cycle 9, Day 1",−3.0 (11.8) percent predicted FEV1
same,"Change From Baseline in Percent Predicted Forced Expiratory Volume in 1 Second (FEV1), Mean (Standard Deviation)","[1]; Cohort 3: 400 mg QD, Cycle 10, Day 1",2.7 (3.9) percent predicted FEV1
same,"Change From Baseline in Percent Predicted Forced Expiratory Volume in 1 Second (FEV1), Mean (Standard Deviation)","[1]; Cohort 3: 400 mg QD, Cycle 11, Day 1",−4.4 (15.8) percent predicted FEV1
same,"Change From Baseline in Percent Predicted Forced Expiratory Volume in 1 Second (FEV1), Mean (Standard Deviation)","[1]; Cohort 3: 400 mg QD, Cycle 12, Day 1",0.3 (3.6) percent predicted FEV1
same,"Change From Baseline in Percent Predicted Forced Expiratory Volume in 1 Second (FEV1), Mean (Standard Deviation)","[1]; Cohort 3: 400 mg QD, Cycle 13, Day 1",−3.5 (13.2) percent predicted FEV1
same,"Change From Baseline in Percent Predicted Forced Expiratory Volume in 1 Second (FEV1), Mean (Standard Deviation)","[1]; Cohort 3: 400 mg QD, Cycle 14, Day 1",−5.1 (9.1) percent predicted FEV1
same,"Change From Baseline in Percent Predicted Forced Expiratory Volume in 1 Second (FEV1), Mean (Standard Deviation)","[1]; Cohort 3: 400 mg QD, Cycle 15, Day 1",−6.1 (12.6) percent predicted FEV1
same,"Change From Baseline in Percent Predicted Forced Expiratory Volume in 1 Second (FEV1), Mean (Standard Deviation)","[1]; Cohort 3: 400 mg QD, Cycle 16, Day 1",−4.5 (7.3) percent predicted FEV1
same,"Change From Baseline in Percent Predicted Forced Expiratory Volume in 1 Second (FEV1), Mean (Standard Deviation)","[1]; Cohort 3: 400 mg QD, Cycle 17, Day 1",−7.9 (15.5) percent predicted FEV1
same,"Change From Baseline in Percent Predicted Forced Expiratory Volume in 1 Second (FEV1), Mean (Standard Deviation)","[1]; Cohort 3: 400 mg QD, Cycle 18, Day 1",4.0 (6.0) percent predicted FEV1
same,"Change From Baseline in Percent Predicted Forced Expiratory Volume in 1 Second (FEV1), Mean (Standard Deviation)","[1]; Cohort 3: 400 mg QD, Cycle 19, Day 1",0.5 (8.5) percent predicted FEV1
same,"Change From Baseline in Percent Predicted Forced Expiratory Volume in 1 Second (FEV1), Mean (Standard Deviation)","[1]; Cohort 3: 400 mg QD, Cycle 25, Day 1",−5.0 (11.4) percent predicted FEV1
same,"Change From Baseline in Percent Predicted Forced Expiratory Volume in 1 Second (FEV1), Mean (Standard Deviation)","[1]; Cohort 3: 400 mg QD, Cycle 27, Day 1",−10.0 (17.0) percent predicted FEV1
same,"Change From Baseline in Percent Predicted Forced Expiratory Volume in 1 Second (FEV1), Mean (Standard Deviation)","[1]; Cohort 3: 400 mg QD, Cycle 29, Day 1",0.0 (1.4) percent predicted FEV1
same,"Change From Baseline in Percent Predicted Forced Expiratory Volume in 1 Second (FEV1), Mean (Standard Deviation)","[1]; Cohort 3: 400 mg QD, Cycle 31, Day 1",−4.0 (—) percent predicted FEV1
same,"Change From Baseline in Percent Predicted Forced Expiratory Volume in 1 Second (FEV1), Mean (Standard Deviation)","[1]; Cohort 3: 400 mg QD, Cycle 35, Day 1",−4.0 (—) percent predicted FEV1
same,"Change From Baseline in Percent Predicted Forced Expiratory Volume in 1 Second (FEV1), Mean (Standard Deviation)","[1]; Cohort 3: 400 mg QD, Cycle 36, Day 1",5.0 (—) percent predicted FEV1
same,"Change From Baseline in Percent Predicted Forced Expiratory Volume in 1 Second (FEV1), Mean (Standard Deviation)","[1]; Cohort 3: 400 mg QD, Cycle 39, Day 1",−5.0 (—) percent predicted FEV1
same,"Change From Baseline in Percent Predicted Forced Expiratory Volume in 1 Second (FEV1), Mean (Standard Deviation)","[1]; Cohort 3: 400 mg QD, Cycle 43, Day 1",−7.0 (—) percent predicted FEV1
same,"Change From Baseline in Percent Predicted Forced Expiratory Volume in 1 Second (FEV1), Mean (Standard Deviation)","[1]; Cohort 3: 400 mg QD, Cycle 47, Day 1",−5.0 (—) percent predicted FEV1
same,"Change From Baseline in Percent Predicted Forced Expiratory Volume in 1 Second (FEV1), Mean (Standard Deviation)","[1]; Cohort 3: 400 mg QD, Cycle 49, Day 1",−2.0 (—) percent predicted FEV1
same,"Change From Baseline in Percent Predicted Forced Expiratory Volume in 1 Second (FEV1), Mean (Standard Deviation)","[1]; Cohort 3: 400 mg QD, EOT",−7.4 (14.9) percent predicted FEV1
same,decrease of belumosudil AUC with omeprazole,[2],47%
same,decrease of belumosudil AUC with rabeprazole,[2],80%
same,decrease of belumosudil AUC with rifampin,[2],72%
same,decrease of belumosudil Cmax with omeprazole,[2],68%
same,decrease of belumosudil Cmax with rabeprazole,[2],87%
same,decrease of belumosudil Cmax with rifampin,[2],59%
same,effect of itraconazole on belumosudil exposure,[2],no clinically meaningful effect
same,inhibition of P-gp,[3],inhibits
same,effect of age and body weight on pharmacokinetics (population pharmacokinetic data),[4],no clinically meaningful effect
same,"pharmacokinetic differences by age, sex, weight, mild to moderate renal impairment",[4],No clinically significant differences
